Results as given in patent US6831199B1, “Pyrimidine compounds and derivatives thereof” (G. D. Searle & Co., priority 1995, dated 2004).
Structures can show the parent of a compound that is named as a salt. Where two headings read alike, the source gives them in different places.

Columns and labels:
[1] = biological target: T1, Human vitronectin receptor (αvβ3) (Homo sapiens, UniProt P05106+P06756); assay: Vitronectin adhesion assay (solid phase receptor assay, competition with biotinylated vitronectin); format: binding; conditions: read-out: AvB3 IC50
T1 construct: Human vitronectin receptor (αvβ3) was purified from human placenta; from tissue; host or cells: human placenta
How it was run: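 Purified human αvβ3 coated overnight at 4 °C in TBS with 1.0 mM Ca++, Mg++, Mn++, pH 7.4; compounds (top final 1.0×10^−4 M) competed with 1 nM biotinylated vitronectin for 2 h at room temperature. Bound ligand detected by HRP anti-biotin/OPD at A450; values normalized to no-competitor controls, four-parameter curve fit.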

M21 human melanoma cells = assay: M21 melanoma cell adhesion assay (αvβ3-dependent adhesion to human fibrinogen-coated plates); format: cell-based; conditions: read-out: M21 Melanoma Cells IC50
Protocol: M21 MELANOMA CELL ADHESION ASSASY
This assay involves an αvβ3-dependent adhesion of M21 human melanoma cells to human fibrinogen-coated plastic tissue culture dishes.
Fibrinogen was purified from human plasma. Fibronectin and plasminogen were eliminated from the preparation by passing the sample over gelatin-sepharose 4B and lysine-sepharose 4B resins, respectively. The fibrinogen is diluted to 10 μg/mL in coating buffer ([…] Tris-HCl, 150 mM NaCl, pH 7.4). 100 μL of diluted fibrinogen is added to each well of a 96-well Immulon 2 microtiter plate (Dynatech; Chantilly, Va.) and allowed to coat overnight at 4° C. Plates are blocked with 1% BSA (Miles/Pentex; Kankakee, Ill.) in adhesion buffer (Hank's balanced salt solution without Ca^++ or Mg^++ [HBSS−−], 50 mM Hepes, 1 mg/mL BSA, pH 7.4) for 1 hour at 37° C.
M21 human melanoma cells were provided by Dr. J. Smith, La Jolla Cancer Research Institute. M21 cells are harvested from tissue culture flasks by washing with HBSS−− and adding cell dissociation solution (Sigma) and incubating for 5 minutes at 37° C. Harvested cells are washed 3 times with adhesion assay buffer containing 200 μM Mn^++. Cells are counted and suspended to a density of 2×10^6/mL in adhesion assay buffer containing 200 μM Mn^++. M21 cells are pre-incubated with antagonists of αvβ3 for 30 minutes at room temperature. Following the pre-incubation, the solutions containing a mixture of cells and antagonists are added to each well of the microtiter plate and allowed to bind for 30 minutes at 37° C.
Following adhesion, plates are gently washed 3 times with 200 μL of wash buffer (50 mM Tris-HCl, 150 mM NaCl, pH 7.4) using large bore pipet tips. Plates are briefly blotted dry and 100 μL of cell lysis buffer (50 mM sodium acetate, pH 5.0, 0.5% Triton X-100, 0.3 mg/mL p-nitrophenyl phosphate [Sigma] is added to each well. Plates are incubated for 60 minutes at 37° C. and 50 μL of 1N NaOH is added to stop the reaction. The absorbance of the wells at […] is read using an automatic plate reader.

| Compound | IC50 [1] [nM] | IC50 (M21 human melanoma cells; Homo sapiens, M21) [nM] | IC50 (M21 human melanoma cells; hydrochloride salt) [nM] |
| --- | --- | --- | --- |
| N=C(N)Nc1cccc(C(=O)NCC(=O)NC(CC(=O)O)c2cnc3ccccc3c2)c1 (stereo not drawn) [Example 99, β-[[2-[[[3-[(aminoiminomethyl)amino]phenyl]carbonyl]amino]acetyl]amino]quinoline-3-propanoic acid, bis(trifluoroacetate)salt] | 0.38 | 0.49 | – |
| O=C(O)CC(NC(=O)CNC(=O)c1cccc(NC(=O)NCc2ccccc2)c1)c1cccnc1 (racemic) [Example 47, (±)β-[[2-[[[3-[[[(phenylmethyl)amino]carbonyl]amino]phenyl]carbonyl]amino]acetyl]amino]pyridine-3-propanoic acid, hydrochloride salt] | 0.86 | 1.18 | – |
| O=C(O)CC(NC(=O)CNC(=O)c1cccc(NC2=NCCCCC2)c1)c1cccnc1 (racemic) [Example 12, (±)β-[[2-[[[3-[(3,4,5,6-tetrahydro-2H-azepin-7-yl)amino]phenyl]carbonyl]amino]acetyl]amino]pyridine-3-propanoic acid, bis(trifluoroacetate)salt] | 1.1 | 9.32 | – |
| N=C(N)Nc1cccc(C(=O)NCC(=O)NC(CC(=O)O)c2ccsc2)c1 (racemic) [Example 59, (±)β-[[2-[[[3-[(aminoiminomethyl)amino]phenyl]carbonyl]amino]acetyl]amino]thiophene-3-propanoic acid, trifluoroacetate salt] | 2.35 | 24.3 | – |
| N=C(N)Nc1cccc(C(=O)NCC(=O)NC(CC(=O)O)c2cccs2)c1 (racemic) [Example 61, (±)β-[[2-[[[3-[(aminoiminomethyl)amino]phenyl]carbonyl]amino]acetyl]amino]thiophene-2-propanoic acid, trifluoroacetate salt] | 1.76 | 228 | – |
| O=C(O)CC(NC(=O)CNC(=O)c1cccc(NC2=NCCCCC2)c1)c1ccc2c(c1)OCO2 (racemic) [Example 14, (±)β-[[2-[[[3-[(3,4,5,6-tetrahydro-2H-azepin-7-yl)amino]phenyl]carbonyl]amino]acetyl]amino]-1,3-benzodioxole-5-propanoic acid, TFA salt] | 1.62 | 5.42 | – |
| O=C(O)CC(NC(=O)CNC(=O)c1cccc(NC2=NCCCCC2)c1)c1ccccc1 (racemic) [Example 15, (±)β-[[2-[[[3-[(3,4,5,6-tetrahydro-2H-azepin-7-yl)amino]phenyl]carbonyl]amino]acetyl]amino]benzenepropanoic acid, trifluoroacetate salt] | 10.2 | 202 | – |
| Cc1ccc(S(=O)(=O)CCC(CC(=O)O)NC(=O)CNC(=O)c2cccc(NC(=N)N)c2)cc1 (racemic) [Example 67, (±)3-[[2-[[[3-[(aminoiminomethyl)amino]phenyl]carbonyl]amino]acetyl]amino]-5-[(4-methylphenyl)sulfonyl]pentanoic acid, trifluoroacetate salt] | 2.05 | 4.08 | – |
| C#C[C@@H](CC(=O)O)NC(=O)CNC(=O)c1cccc(NC(=N)N)c1 [Example 43, 3R-[[2-[[[(3-[(aminoiminomethyl)amino]phenyl]carbonyl]amino]acetyl]amino]-4-pentynoic acid, hydrochloride salt] | 28.3 | – | 188 |
| Cc1ccc(S(=O)(=O)NCC(CC(=O)O)NC(=O)CNC(=O)c2cccc(NC(=N)N)c2)cc1 (stereo not shown) [Example 65, 3-[[2-[[[3-[(aminoiminomethyl)amino]phenyl]carbonyl]amino]acetyl]amino]-4-[[(4-methylphenyl)sulfonyl]amino]butanoic acid, trifluoroacetate salt] | 9.7 | 13.8 | – |
| Cc1ccc(SCCC(CC(=O)O)NC(=O)CNC(=O)c2cccc(NC(=N)N)c2)cc1 (racemic) [Example 66, (±)3-[[2-[[[3-[(aminoiminomethyl)amino]phenyl]carbonyl]amino]acetyl]amino]-5-[(4-methylphenyl)thio]pentanoic acid, trifluoroacetate salt] | 1.44 | 2.51 | – |

Results, then the compound that gave them:

| IC50 [1] [nM] | IC50 (M21 human melanoma cells; Homo sapiens, M21) [nM] | IC50 (M21 human melanoma cells; hydrochloride salt) [nM] | Compound |
| --- | --- | --- | --- |
| 3.12 | 6.87 | – | N=C(N)Nc1cccc(C(=O)NCC(=O)NC(CC(=O)O)c2ccc3ccccc3c2)c1 (racemic) [Example 56, (±)β-[[2-[[[3-[(aminoiminomethyl)amino]phenyl]carbonyl]amino]acetyl]amino]naphthalene-2-propanoic acid, trifluoroacetate salt] |
| 2.66 | 3.64 | – | O=C(O)CC(NC(=O)CNC(=O)c1cccc(NC2=NCCC2)c1)c1cccnc1 (stereo not drawn) [Example 17, β-[[2-[[[3-[(3,4-dihydro-2H-pyrrol-5-yl)amino]phenyl]carbonyl]amino]acetyl]amino]pyridine-3-propanoic acid, bis(trifluoroacetate)salt] |
| 5.34 | 147 | – | NC(=O)Nc1cccc(C(=O)NCC(=O)NC(CC(=O)O)c2cccnc2)c1 (stereo not drawn) [Example 46, β-[[2-[[[3-(aminocarbonylamino)phenyl]carbonyl]amino]acetyl]amino]pyridine-3-propanoic acid, hydrochloride salt] |
| 0.69 | 0.28 | – | N=C(N)Nc1cc(C(=O)NCC(=O)NC(CC(=O)O)c2cccnc2)c2ccccc2c1 (racemic) [Example 8, (±)β-[[2-[[[3-[(aminoiminomethyl)amino]naphthalen-1-yl]carbonyl]amino]acetyl]amino]pyridine-3-propanoic acid, bis(trifluoroacetate)salt] |
| 20.4 | 1040 | – | N=C(N)Nc1cccc(C(=O)NCC(=O)N[C@@H](CC(=O)O)CS(=O)(=O)c2ccccc2C(=O)O)c1 [Example 71, 2-[[2S-[[2-[[[3-[(aminoiminomethyl)amino]phenyl]carbonyl]amino]acetyl]amino]-2-(carboxymethyl)ethyl]sulfonyl]benzoic acid, TFA salt] |
| 1.75 | 320 | – | C#C[C@H](CC(=O)O)NC(=O)CNC(=O)c1cccc(NC2=NCCCCC2)c1 [Example 30, βS-[[2-[[[3-[(3,4,5,6-tetrahydro-2H-azepin-7-yl)amino]phenyl]carbonyl]amino]acetyl]amino]-4-pentynoic acid, trifluoroacetate salt] |
| 3.62 | 11.7 | – | N=C(N)Nc1cccc(C(=O)NCC(=O)NC(CC(=O)O)c2ccoc2)c1 (racemic) [Example 52, (±)β-[[2-[[[3-[(aminoiminomethyl)amino]phenyl]carbonyl]amino]acetyl]amino]furan-3-propanoic acid, trifluoroacetate salt] |
| 0.69 | – | 2.54 | C#C[C@H](CC(=O)O)NC(=O)CNC(=O)c1cccc(NC(=N)N)c1 [Example 45, 3S-[[2-[[[3-[(aminoiminomethyl)amino]phenyl]carbonyl]amino]acetyl]amino]-4-pentynoic acid, hydrochloride salt] |
| 0.73 | 0.74 | – | N=C(N)Nc1cccc(C(=O)NCC(=O)NC(CCS(=O)(=O)c2ccccc2C(=O)O)CC(=O)O)c1 (racemic) [60(C), (±)2-[3-[[2-[[[3-[(aminoiminomethyl)amino]phenyl]carbonyl]amino]acetyl]amino]-4-carboxybutyl]sulfonyl]benzoic acid, trifluoroacetate] |
| 3.26 | 200 | – | NC(=S)Nc1cccc(C(=O)NCC(=O)NC(CC(=O)O)c2cccnc2)c1 (stereo not drawn) [Example 114, β-[[2-[[[3-[(aminothioxomethyl)amino]phenyl]carbonyl]amino]acetyl]amino]pyridine-3-propanoic acid, trifluoroacetate salt] |
| 0.92 | 1.82 | – | O=C(O)CC(NC(=O)CNC(=O)c1cccc(NC2=NCCN2)c1)c1cccnc1 (racemic) [Example 10, (±)β-[[2-[[[3-[(4,5-dihydro-1H-imidazol-2-yl)amino]phenyl]carbonyl]amino]acetyl]amino]pyridine-3-propanoic acid, bis(trifluoroacetate)salt] |
| 8.44 | 52.3 | – | Cc1ccc(O)c(C(CC(=O)O)NC(=O)CNC(=O)c2cccc(NC(=N)N)c2)c1 (racemic) [Example 88, (±)β-[[2-[[[3-[(aminoiminomethyl)amino]phenyl]carbonyl]amino]acetyl]amino]-2-hydroxy-5-methylbenzenepropanoic acid, trifluoroacetate salt] |
